{
  "source": "paper PMC8571316",
  "about": "(Scientific Reports, 2021)",
  "key": {"[1]": {"molecular_target": "T1, SARS-CoV-2 S1 protein (Severe acute respiratory syndrome coronavirus 2, UniProt P0DTC2)", "T1 construct": "immobilized SARS-CoV-2 S1 protein (His-tag, #S1N-C52H3, Acro Biosystems); His-tag; purchased Acro Biosystems S1N-C52H3", "assay_type": "binding"}, "[2]": {"molecular_target": "T1, SARS-CoV-2 S1 protein", "test": "biochemical", "assay_type": "binding", "details": "for kon: read-out: S1 Protein in Binding Buffer ka (1/Ms); for koff: read-out: S1 Protein in Binding Buffer kdis (1/s)"}},
  "note": "Peptide text beside a SMILES is read from it. * marks the point of attachment. Biotin = O=C1N[C@H]2[C@H](CS[C@H]2CCCCC(=O)*)N1; PEG4 = NCCOCCOCCOCCOCCC(=O)O",
  "data": [
    {"smiles": "CC(C)C[C@H](NC(=O)[C@H](CC(=O)O)NC(=O)[C@H](CCC(=O)O)NC(=O)[C@H](Cc1c[nH]c2ccccc12)NC(=O)[C@H](CCC(=O)O)NC(=O)[C@H](CC(C)C)NC(=O)[C@H](CC(N)=O)NC(=O)[C@H](Cc1ccccc1)NC(=O)[C@@H](NC(=O)[C@H](Cc1ccccc1)NC(=O)[C@H](CC(C)C)NC(=O)[C@H](Cc1ccccc1)NC(=O)[C@H](CC(C)C)NC(=O)[C@@H](NC(=O)[C@H](Cc1c[nH]c2ccccc12)NC(=O)[C@H](CC(=O)O)NC(=O)CCOCCOCCOCCOCCNC(=O)CCCC[C@@H]1SC[C@@H]2NC(=O)N[C@@H]21)[C@@H](C)O)C(C)C)C(=O)N[C@@H](Cc1ccccc1)C(=O)N[C@@H](Cc1ccc(O)cc1)C(=O)O", "note": "[Peptide P89] ({Biotin-PEG4}-DWTLFLFVFNLEWEDLFY-OH; C-terminus assumed)", "values": [
      {"measurement": "binding to S1 protein in ELISA-like assay (in words)", "setting": "[1]", "value": "higher binding affinity than the original ACE2 fragment (SBP1)"},
      {"measurement": "kon", "setting": "[2]", "value": 7800, "unit": "M⁻¹ s⁻¹"},
      {"measurement": "koff", "setting": "[2]", "value": 0.000969, "unit": "s⁻¹"}
    ]},
    {"smiles": "CC[C@H](C)[C@H](NC(=O)[C@H](CCC(=O)O)NC(=O)[C@H](Cc1ccc(O)cc1)NC(=O)[C@H](Cc1ccc(O)cc1)NC(=O)[C@H](CCSC)NC(=O)[C@H](Cc1c[nH]cn1)NC(=O)[C@H](CCSC)NC(=O)[C@H](Cc1c[nH]c2ccccc12)NC(=O)[C@H](CCCCN)NC(=O)[C@H](CC(=O)O)NC(=O)[C@H](Cc1c[nH]c2ccccc12)NC(=O)[C@H](CCC(=O)O)NC(=O)[C@@H](NC(=O)[C@H](CCCCN)NC(=O)CCOCCOCCOCCOCCNC(=O)CCCC[C@@H]1SC[C@@H]2NC(=O)N[C@@H]21)[C@@H](C)O)C(=O)N[C@@H](Cc1ccccc1)C(=O)N[C@@H](Cc1ccc(O)cc1)C(=O)N[C@@H](CCC(=O)O)C(=O)N[C@@H](CC(=O)O)C(=O)O", "note": "[Peptide P100] ({Biotin-PEG4}-KTEWDKWMHMYYEIFYED-OH; C-terminus assumed)", "values": [
      {"measurement": "binding to S1 protein in ELISA-like assay (in words)", "setting": "[1]", "value": "higher binding affinity than the original ACE2 fragment (SBP1)"},
      {"measurement": "kon", "setting": "[2]", "value": 3930, "unit": "M⁻¹ s⁻¹"},
      {"measurement": "koff", "setting": "[2]", "value": 0.000728, "unit": "s⁻¹"}
    ]},
    {"smiles": "CC[C@H](C)[C@H](NC(=O)[C@H](CC(=O)O)NC(=O)[C@H](Cc1ccccc1)NC(=O)[C@H](CC(N)=O)NC(=O)CCOCCOCCOCCOCCNC(=O)CCCC[C@@H]1SC[C@@H]2NC(=O)N[C@@H]21)C(=O)N[C@@H](CC(C)C)C(=O)N[C@@H](CC(C)C)C(=O)N[C@@H](Cc1ccccc1)C(=O)N[C@H](C(=O)N[C@@H](Cc1ccccc1)C(=O)N[C@@H](CC(N)=O)C(=O)N[C@@H](Cc1ccc(O)cc1)C(=O)N[C@@H](CCC(=O)O)C(=O)N[C@@H](CCSC)C(=O)N[C@@H](CCC(=O)O)C(=O)N[C@@H](CC(=O)O)C(=O)N[C@@H](CCCCN)C(=O)N[C@@H](Cc1ccccc1)C(=O)N[C@@H](Cc1ccc(O)cc1)C(=O)O)C(C)C", "note": "[Peptide P168] ({Biotin-PEG4}-NFDILLFVFNYEMEDKFY-OH; C-terminus assumed)", "values": [
      {"measurement": "binding to S1 protein in ELISA-like assay (in words)", "setting": "[1]", "value": "higher binding affinity than the original ACE2 fragment (SBP1)"},
      {"measurement": "kon", "setting": "[2]", "value": 7490, "unit": "M⁻¹ s⁻¹"},
      {"measurement": "koff", "setting": "[2]", "value": 0.00107, "unit": "s⁻¹"}
    ]},
    {"smiles": "CC[C@H](C)[C@H](NC(=O)[C@@H](NC(=O)[C@H](Cc1ccc(O)cc1)NC(=O)[C@H](Cc1ccccc1)NC(=O)[C@H](Cc1ccc(O)cc1)NC(=O)[C@@H](NC(=O)[C@H](CCC(=O)O)NC(=O)[C@H](CCSC)NC(=O)[C@H](Cc1c[nH]c2ccccc12)NC(=O)[C@H](Cc1c[nH]cn1)NC(=O)[C@H](CO)NC(=O)[C@H](Cc1ccccc1)NC(=O)[C@H](CCSC)NC(=O)[C@H](CC(=O)O)NC(=O)[C@H](Cc1c[nH]c2ccccc12)NC(=O)[C@H](CC(=O)O)NC(=O)[C@@H](NC(=O)[C@H](CCCCN)NC(=O)CCOCCOCCOCCOCCNC(=O)CCCC[C@@H]1SC[C@@H]2NC(=O)N[C@@H]21)[C@@H](C)O)[C@@H](C)CC)C(C)C)C(=O)O", "note": "[Peptide P180] ({Biotin-PEG4}-KTDWDMFSHWMEIYFYVI-OH; C-terminus assumed)", "values": [
      {"measurement": "binding to S1 protein in ELISA-like assay (in words)", "setting": "[1]", "value": "higher binding affinity than the original ACE2 fragment (SBP1)"},
      {"measurement": "kon", "setting": "[2]", "value": 3830, "unit": "M⁻¹ s⁻¹"},
      {"measurement": "koff", "setting": "[2]", "value": 0.000929, "unit": "s⁻¹"}
    ]}
  ]
}
